The format of series [1] is in vivo, rhesus monkeys (Macaca mulatta). Particulars: monkey. On the procedure:
Blood samples were centrifuged to separate the plasma, weighed, and subjected to radioactivity measurement. For metabolite analysis, methanol was added to some plasma samples, the resulting solutions were centrifuged, and the supernatants were developed with TLC plates (AL SIL G/UV; Whatman, Kent, UK) using a mobile phase of dichloromethane/diethyl ether/ethanol/triethylamine (20/20/2/2, v/v/v/v). At each sampling time point, the ratio of radioactivity in the unmetabolized fraction to that in the total plasma (metabolite plus unmetabolite) was determined using a phosphoimaging plate (BAS-1500 MAC; Fuji Film Co., Tokyo, Japan). The pTACs corrected for metabolite were obtained. The tTACs in each region of interest (ROI) in the brain were calculated as the %ID/ml or as a standardized uptake value (SUV), (activity/ml tissue)/(injected activity/g body weight). Using the tTACs and the metabolite-corrected pTAC, the V T for each tracer was evaluated by Logan graphical analysis.

For series [2] the following is noted: mice. On the procedure:
Each tracer (180 MBq/3.0–13.4 nmol) was intravenously injected into mice, and 15 and 30 min later the animals were killed by cervical dislocation (n = 3). Blood was removed by heart puncture using a heparinized syringe, and the brain was removed. The blood was centrifuged at 7,000×g for 1 min at 4°C to obtain plasma, which was denatured with 5 volume of CH3CN. The mixture was centrifuged under the same conditions, and the precipitate was re-suspended in 0.5 ml of CH3CN, followed by centrifugation. This procedure was repeated three times. The cerebral cortex (approximately 200 mg) was homogenized in 1.0 ml of 50% CH3CN. The homogenate was then treated as described above. The combined supernatant was diluted with 2 volumes of water and then analyzed by HPLC with a radioactivity detector (FLO-ONE 150TR; Packard Instrument, Meriden, CT). A Radial-Pak C18 column equipped with an RCM 8×10 module (8 mm ×100 mm; Waters, Milford, MA) was used with a mixture of CH3CN/H2O/triethyl amine (40/60/0.1 for [^11C]A-582941 and 70/30/0.1 for [^11C]A-844606, v/v/v) as the mobile phase at a flow rate of 2 ml/min. The elution profile was monitored with a radioactivity detector. The retention times of [^11C]A-582941 and [^11C]A-844606 were 6.4 and 8.8 min, respectively. The recovery in the eluate of the injected radioactivity was essentially quantitative.

Consider one molecule from publication PMC2813863, “In Vivo Evaluation of α7 Nicotinic Acetylcholine Receptor Agonists [^11C]A-582941 and [^11C]A-844606 in Mice and Conscious Monkeys” (PLoS ONE, 2010).

Several values for one entry are separate records, joined by “and”; a condition that tells them apart may be missing. Identical values can stand only once. Like-named read-outs stand apart in the source and are kept apart here.

As for `[11CH3]N1CC2CN(c3ccc(-c4ccccc4)nn3)CC2C1` (centres unmarked) [[^11C]A-582941, 2-[^11C]Methyl-5-[6-phenylpyridazine-3-yl]octahydropyrrolo[3,4-c]pyrrole], the “percentage of the unchanged form in plasma” value in series [1] (SSR180711-blocking condition (n = 1), 0.3 min) amounted to 93.2%; in series [1] (SSR180711-blocking condition (n = 1), 0.7 min), 93.9%; in series [1] (SSR180711-blocking condition (n = 1), 1.1 min) it was 93.0%; in series [1] (SSR180711-blocking condition (n = 1), 6.0 min), 74.2%; in series [1] (SSR180711-blocking condition (n = 1), 10 min), 56.7%; in series [1] (SSR180711-blocking condition (n = 1), 30 min) it was 28.3%. Besides, the “percentage of the unchanged form in plasma” value in series [1] (SSR180711-blocking condition (n = 1), 45 min) is 23.2%; in series [1] (SSR180711-blocking condition (n = 1), 60 min), 20.4%; in series [1] (SSR180711-blocking condition (n = 1), 75 min), 22.2%; in series [1] (SSR180711-blocking condition (n = 1), 90 min), 15.9%; in series [1] (baseline, 10 min), 71.6±4.1%; in series [1] (baseline, 30 min), 42.8±7.8% and 42.8%. Also, the “percentage of the unchanged form in plasma” value came to 34.0±7.4% in series [1] (baseline, 45 min); 26.9±5.3% in series [1] (baseline, 60 min); 23.0±3.4% in series [1] (baseline, 75 min); 19.2±2.6% in series [1] (baseline, 90 min). The entries for the “percentage of the unchanged form in the brain” value in series [2] (15 min after injection) and in series [2] (30 min after injection) were 95.4±1.9% and 97.4±0.8%, respectively. Moreover, the “percentage of the unchanged form in the plasma” value was 40.5±7.1% in series [2] (15 min after injection); 26.8±6.6% and 26.8% in series [2] (30 min after injection).
